# Experimental data taken from US12060349B2, “Glucosylceramide synthase inhibitors” (Genzyme Corporation, priority 2012, dated 2024).
# Where two headings read alike, the source gives them in different places.
# What was measured:
# [1] = target: T1, glucosylceramide synthase (Homo sapiens, UniProt Q16739); test: microsomal assay measuring conversion of ceramide to glucosylceramide by HPLC (GCS IC50); type: biochemical; details: concentration causing 50% inhibition of glucosylceramide synthase activity
# T1 construct: Microsomes were isolated from A375 human melanoma cells; endogenous in cells; host or cells: A375 human melanoma cells (microsomal fraction, 100,000 g pellet)
# T1 sequence (Q16739 1-394): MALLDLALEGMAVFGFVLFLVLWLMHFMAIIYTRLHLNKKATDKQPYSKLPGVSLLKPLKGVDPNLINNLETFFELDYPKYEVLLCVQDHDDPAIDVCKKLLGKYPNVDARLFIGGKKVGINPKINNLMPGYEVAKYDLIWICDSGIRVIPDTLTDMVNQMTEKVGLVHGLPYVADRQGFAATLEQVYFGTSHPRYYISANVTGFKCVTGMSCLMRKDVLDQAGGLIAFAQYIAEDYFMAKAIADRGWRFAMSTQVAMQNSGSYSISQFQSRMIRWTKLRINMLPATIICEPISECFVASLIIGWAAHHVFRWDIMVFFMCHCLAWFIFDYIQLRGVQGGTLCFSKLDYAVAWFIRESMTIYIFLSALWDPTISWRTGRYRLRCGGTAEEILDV
# Procedure, shortened: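 Microsomal preparation assayed for glucosylceramide synthase by direct HPLC measurement of ceramide conversion to glucosylceramide. GCS IC50 is the compound concentration giving 50% inhibition of enzyme activity.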
# [2] = system: GM3 expression on the cell surface, B16 mouse melanoma cells; test: cell based phenotypic assay, cell surface GM3 by antibody mediated immunofluorescence, B16 (GM3 B16 IC50); details: 50% inhibition of GM3 expression on the cell surface
# Procedure, shortened: (§1)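 Two melanoma lines, mouse B16 and human C32, were treated and surface GM3 quantified by antibody immunofluorescence for IC50. A parallel viability readout gives the concentration killing 50% of cells, with values over 10 indicating no cell death.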
# [3] = system: GM3 expression on the cell surface, C32 human melanoma cells; test: cell based phenotypic assay, cell surface GM3 by antibody mediated immunofluorescence, C32 (GM3 C32 IC50); details: 50% inhibition of GM3 expression on the cell surface
# Procedure, shortened: as §1
# B16 mouse melanoma cells = test: cell viability in the B16 cell-based assay (Viability, B16 IC50)
# Procedure, shortened: (§2)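 Both lines undergo the phenotypic GM3 assay, and viability is recorded from that same cell-based run.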
# C32 human melanoma cells = test: cell viability in the C32 cell-based assay (Viability, C32 IC50); details: concentration causing 50% cell death, values greater than 10 represent a lack of cell death
# Procedure, shortened: as §2
# [4] = Mus musculus, B16 mouse melanoma cells, read-out: GM3 B16 IC50
# [5] = Homo sapiens, C32 human melanoma cells, read-out: GM3 C32 IC50
# [6] = Mus musculus, B16, B16 cells, concentration causing 50% cell death, values greater than 10 represent a lack of cell death, read-out: Viability, B16 IC50
# [7] = Homo sapiens, C32, C32 cells, read-out: Viability, C32 IC50
smiles,measurement,setting,value
"CN(C)C(=O)c1ccc(Oc2ccc(C(C)(C)NC(=O)NC3(C)CCN4CCC3CC4)cc2)cc1 (centres unmarked) [Example 290, N,N-Dimethyl-4-(4-(2-(3-(4-methyl-1-aza-bicyclo[3.2.2]nonan-4-yl)ureido)propan-2-yl)phenoxy)benzamide]",IC50,[1],19.1 nM
same,IC50,"[2]; B16 mouse melanoma cells, read-out: GM3 B16 IC50",2580 nM
same,IC50,"[3]; C32 human melanoma cells, read-out: GM3 C32 IC50",26.8 nM
same,IC50,"B16 mouse melanoma cells; B16 cells, concentration causing 50% cell death, values greater than 10 represent a lack of cell death, read-out: Viability, B16 IC50",≥ 10000 nM
same,IC50,"C32 human melanoma cells; C32 cells, read-out: Viability, C32 IC50",3160 nM
"CNC(=O)c1ccc(Oc2ccc(C(C)(C)NC(=O)OC3CN4CCC3CC4)cc2)cc1 (centres unmarked) [Example 291, Quinuclidin-3-yl 2-(4-(4-(methylcarbamoyl)phenoxy)phenyl)propan-2-ylcarbamate]",IC50,[1],1910 nM
same,IC50,"[2]; Mus musculus, read-out: GM3 B16 IC50, B16 mouse melanoma cells",2310 nM
same,IC50,"[3]; Homo sapiens, read-out: GM3 C32 IC50, C32 human melanoma cells",90.2 nM
same,IC50,"B16 mouse melanoma cells; Mus musculus, B16, read-out: Viability, B16 IC50",≥ 10000 nM
same,IC50,"C32 human melanoma cells; Homo sapiens, C32, read-out: Viability, C32 IC50, C32 cells",3160 nM
"CNC(=O)c1ccc(Oc2ccc(C(C)(C)NC(=O)OC3CCN4CCC3CC4)cc2)cc1 (centres unmarked) [Example 292, 1-Aza-bicyclo[3.2.2]nonan-4-yl 2-(4-(4-(methylcarbamoyl)phenoxy)phenyl)propan-2-ylcarbamate]",IC50,[1],207 nM
same,IC50,[2]; [4],1220 nM
same,IC50,[3]; [5],41.2 nM
same,IC50,B16 mouse melanoma cells; [6],≥ 10000 nM
same,IC50,C32 human melanoma cells; [7],≥ 10000 nM
"CNC(=O)c1ccc(Oc2ccc(C(C)(C)NC(=O)NC3(C)CN4CCC3CC4)cc2)cc1 (centres unmarked) [Example 293, N-Methyl-4-(4-(2-(3-(3-methylquinuclidin-3-yl)ureido)propan-2-yl)phenoxy)benzamide]",IC50,[1],186 nM
same,IC50,[2]; [4],5370 nM
same,IC50,[3]; [5],46 nM
same,IC50,B16 mouse melanoma cells; [6],≥ 10000 nM
same,IC50,C32 human melanoma cells; [7],1000 nM
"CNC(=O)c1ccc(Oc2ccc(C(C)(C)NC(=O)NC3(C)CCN4CCC3CC4)cc2)cc1 (centres unmarked) [Example 294, N-Methyl-4-(4-(2-(3-(4-methyl-1-aza-bicyclo[3.2.2]nonan-4-yl)ureido)propan-2-yl)phenoxy)benzamide]",IC50,[1],12.4 nM
same,IC50,[2]; [4],843 nM
same,IC50,[3]; [5],7.06 nM
same,IC50,B16 mouse melanoma cells; [6],≥ 10000 nM
same,IC50,C32 human melanoma cells; [7],1000 nM
"CNC(=O)c1cccc(Oc2cccc(C(C)(C)NC(=O)NC3(C)CN4CCC3CC4)c2)c1 (centres unmarked) [Example 296, N-Methyl-3-(3-(2-(3-(3-methylquinuclidin-3-yl)ureido)propan-2-yl)phenoxy)benzamide]",IC50,[1],200 nM
same,IC50,[2]; [4],5470 nM
same,IC50,[3]; [5],155 nM
same,IC50,B16 mouse melanoma cells; [6],≥ 10000 nM
same,IC50,C32 human melanoma cells; [7],≥ 10000 nM
"CNC(=O)c1cccc(Oc2cccc(C(C)(C)NC(=O)NC3(C)CCN4CCC3CC4)c2)c1 (centres unmarked) [Example 297, N-Methyl-3-(3-(2-(3-(4-methyl-1-aza-bicyclo[3.2.2]nonan-4-yl)ureido)propan-2-yl)phenoxy)benzamide]",IC50,[1],10.2 nM
same,IC50,[2]; [4],1370 nM
same,IC50,[3]; [5],13.2 nM
same,IC50,B16 mouse melanoma cells; [6],≥ 10000 nM
same,IC50,C32 human melanoma cells; [7],1000 nM
"CNC(=O)c1cccc(Oc2cccc(C(C)(C)NC(=O)OC3CCN4CCC3CC4)c2)c1 (centres unmarked) [Example 298, 1-Aza-bicyclo[3.2.2]nonan-4-yl 2-(3-(3-(methylcarbamoyl)phenoxy)phenyl)propan-2-ylcarbamate]",IC50,[1],138 nM
same,IC50,[2]; [4],1100 nM
same,IC50,[3]; [5],30.8 nM
same,IC50,B16 mouse melanoma cells; [6],≥ 10000 nM
same,IC50,C32 human melanoma cells; [7],3160 nM
"CC(C)(NC(=O)OC1CCN2CCC1CC2)c1ccc(Oc2ccc(C(=O)N3CCCCC3)cc2)cc1 (centres unmarked) [Example 299, 1-Aza-bicyclo[3.2.2]nonan-4-yl 2-(4-(4-(piperidine-1-carbonyl)phenoxy)phenyl) propan-2-ylcarbamate]",IC50,[1],15.4 nM
same,IC50,[2]; [4],192 nM
same,IC50,[3]; [5],3.67 nM
same,IC50,B16 mouse melanoma cells; [6],≥ 10000 nM
same,IC50,C32 human melanoma cells; [7],1000 nM
"CC(C)(NC(=O)NC1(C)CCN2CCC1CC2)c1ccc(Oc2ccc(C(=O)N3CCCCC3)cc2)cc1 (centres unmarked) [Example 300, 1-(4-Methyl-1-aza-bicyclo[3.2.2]nonan-4-yl)-3-(2-(4-(4-(piperidine-1-carbonyl)phenoxy)phenyl)propan-2-yl)urea]",IC50,[1],6.85 nM
same,IC50,[2]; [4],87.6 nM
same,IC50,[3]; [5],1.54 nM
same,IC50,B16 mouse melanoma cells; [6],≥ 10000 nM
same,IC50,C32 human melanoma cells; [7],316 nM
